Source: patent US20250009777A1 (priority 2021, published 2025)
pEC50: −log10 of the molar value. Read-outs that look alike come from different tables or passages of the source.

Legend:
SARS-CoV-2 Wuhan strain = test: Antiviral activity against SARS-CoV-2 Wuhan strain, same manner as Example 1; type: cell-based; details: for SI: CC50 relative to EC50
[1] = Cytotoxicity (CC50) of structural analogs, Table 4; type: cell-based; details: cell line not stated
Protocol: Measurement of the antiviral activity was conducted in the same manner as Example 1. […] Among these compounds, compounds (A2), (A4) and (A6) had satisfactory differences in the ECso and CCso concentration levels, indicating particular promise as antiviral agents.

DENV2 [2] = test: microbe, parasite or virus in culture; type: cell-based; details: Dengue virus, DENV2, BHK-21, 96 h
ZIKV = test: microbe, parasite or virus in culture; type: cell-based; details: Zika virus, BHK-21, 72 h
in vitro [3] = details: human
JEV = test: microbe, parasite or virus in culture; type: cell-based; details: Japanese encephalitis virus, BHK-21, 72 h
HCoV-229E = test: microbe, parasite or virus in culture; type: cell-based; details: Human coronavirus 229E, MRC5
DENV1 = test: microbe, parasite or virus in culture; type: cell-based; details: Dengue virus, DENV1, BHK-21, 120 h
in vitro [4] = details: Syrian hamster
DENV3 = test: microbe, parasite or virus in culture; type: cell-based; details: Dengue virus, DENV3, BHK-21, 120 h
HCoV-OC43 = test: microbe, parasite or virus in culture; type: cell-based, Human Coronavirus; details: Betacoronavirus 1, OC43, MRC5
DENV4 = test: microbe, parasite or virus in culture; type: cell-based; details: Dengue virus, DENV4, BHK-21, 120 h
DENV2 [5] = test: Library screening for inhibition of cell death of flavivirus-infected cells; type: cell-based, dengue virus; details: compound library screening
Protocol: Using the compounds of a compound library based on nucleic acid compounds held by the Center for Research and Education on Drug Discovery, Hokkaido University, National University Corporation as test samples, screening was conducted for compounds having an effect in inhibiting cell death of cells infected with a flavivirus. DENV2 was used as the flavivirus.

CHIKV = test: microbe, parasite or virus in culture; type: cell-based; details: Chikungunya virus, BHK-21
YFV = test: microbe, parasite or virus in culture; type: cell-based; details: Yellow fever virus, BHK-21, 72 h
[6] = system: coronaviruses, flaviviruses and togaviruses; type: cell-based
[7] = system: AG129 mouse-adapted DENV2; type: in vivo, mice; details: for Survival rate: death = bodyweight below 70%; for day post virus infection until which all of the mice survived: death = bodyweight below 80% of initial, FIG. 2A
WNV = test: microbe, parasite or virus in culture; type: cell-based; details: West Nile virus, BHK-21, 72 h
[8] = Severe acute respiratory syndrome coronavirus 2

`O=c1ccn(C2O[C@H](CO)[C@@H](O)[C@H]2O)c(=NO)[nH]1` (stereo partly drawn) [Compound A4] gave an SI (SARS-CoV-2 Wuhan strain) of 7.5, a pEC50 (SARS-CoV-2 Wuhan strain; [8]) of 6.09 and a CC50 [1] of 6.04 µM.

Compound `CSc1nc(=O)ccn1C1O[C@H](CO)[C@@H](O)[C@H]1O` (stereo partly drawn) [Compound A3] has an SI (SARS-CoV-2 Wuhan strain) of 1.2, a pEC50 (SARS-CoV-2 Wuhan strain; [8]) of 5.33 and a CC50 [1] of 5.48 µM.

“2′,3′-O-isopropylidene-5′-O-propynyl-2-thiouridine [Compound A5]” showed a pEC50 (SARS-CoV-2 Wuhan strain) of 5.12, an SI (SARS-CoV-2 Wuhan strain) of 1.6 and a CC50 [1] of 11.9 µM.

For `O=c1ccn([C@@H]2O[C@H](CO)[C@@H](O)[C@H]2O)c(=[Se])[nH]1` [Compound A2, 2-selenouridine], the SI (SARS-CoV-2 Wuhan strain) was >2.7, the pEC50 (SARS-CoV-2 Wuhan strain; [8]) was 5.13 and the CC50 [1] was > 20 µM.

With `O=c1ccn([C@@H]2O[C@H](CO)[C@@H](O)[C@H]2O)c(=S)[nH]1` [2-thiouridine] the pEC50 (DENV2 [2]) was 5.82, the pEC50 (ZIKV) was 5.30 and the CC50 (in vitro [3]) was > 50 µM. For the same compound, the pEC50 (JEV) was 5.32, the pEC50 (HCoV-229E) was 6.11 and the pEC50 (DENV1) was 5.62. The CC50 (in vitro [4]) was > 50 µM, the pEC50 (DENV3) was 5.70 and the pEC50 (HCoV-OC43) was 4.89. The pEC50 (DENV4) was 5.77, the “antiviral activity (inhibiting cell death of infected cells)” value (DENV2 [5]) was “exhibited antiviral activity” and the pEC50 (CHIKV) was 5.09. The pEC50 (YFV) was 5.54, the “relative viral RNA level” value [6] was “decreased” and the “survival rate for the virus-infected mice” value ([7]; 50 mg/kg (n=8) and 150 mg/kg (n=9) groups compared with vehicle, in words) was “increased in a dosage-dependent manner”. It also gave a Survival rate ([7]; 50 mg/kg oral twice per day, n = 8, day 0 post infection) of 100%, a Survival rate ([7]; 50 mg/kg oral twice per day, n = 8, day 1 post infection) of 100% and a Survival rate ([7]; 50 mg/kg oral twice per day, n = 8, day 2 post infection) of 100%. It also gave a Survival rate ([7]; 50 mg/kg oral twice per day, n = 8, day 3 post infection) of 100%, a Survival rate ([7]; 50 mg/kg oral twice per day, n = 8, day 4 post infection) of 100% and a Survival rate ([7]; 50 mg/kg oral twice per day, n = 8, day 5 post infection) of 100%. It also gave a Survival rate ([7]; 50 mg/kg oral twice per day, n = 8, day 6 post infection) of 100%, a Survival rate ([7]; 50 mg/kg oral twice per day, n = 8, day 7 post infection) of 100% and a Survival rate ([7]; 50 mg/kg oral twice per day, n = 8, day 8 post infection) of 100%. It also gave a Survival rate ([7]; 50 mg/kg oral twice per day, n = 8, day 9 post infection) of 100%, a Survival rate ([7]; 50 mg/kg oral twice per day, n = 8, day 10 post infection) of 100% and a Survival rate ([7]; 50 mg/kg oral twice per day, n = 8, day 11 post infection) of 75%. For the same compound, the Survival rate ([7]; 50 mg/kg oral twice per day, n = 8, day 12 post infection) was 50%, the Survival rate ([7]; 50 mg/kg oral twice per day, n = 8, day 13 post infection) was 37.5% and the Survival rate ([7]; 50 mg/kg oral twice per day, n = 8, day 14 post infection) was 37.5%. For the same compound, the Survival rate ([7]; 50 mg/kg oral twice per day, n = 8, day 15 post infection) was 0%, the “day post virus infection until which all of the mice survived” value ([7]; 50 mg/kg orally twice per day for 5 days, n=3) was 12 days and the Survival rate ([7]; 150 mg/kg oral twice per day, n = 9, day 0 post infection) was 100%. For the same compound, the Survival rate ([7]; 150 mg/kg oral twice per day, n = 9, day 1 post infection) was 100%, the Survival rate ([7]; 150 mg/kg oral twice per day, n = 9, day 2 post infection) was 100% and the Survival rate ([7]; 150 mg/kg oral twice per day, n = 9, day 3 post infection) was 100%. It also gave a Survival rate ([7]; 150 mg/kg oral twice per day, n = 9, day 4 post infection) of 100%, a Survival rate ([7]; 150 mg/kg oral twice per day, n = 9, day 5 post infection) of 100% and a Survival rate ([7]; 150 mg/kg oral twice per day, n = 9, day 6 post infection) of 100%. For the same compound, the Survival rate ([7]; 150 mg/kg oral twice per day, n = 9, day 7 post infection) was 100%, the Survival rate ([7]; 150 mg/kg oral twice per day, n = 9, day 8 post infection) was 100% and the Survival rate ([7]; 150 mg/kg oral twice per day, n = 9, day 9 post infection) was 100%. For the same compound, the Survival rate ([7]; 150 mg/kg oral twice per day, n = 9, day 10 post infection) was 100%, the Survival rate ([7]; 150 mg/kg oral twice per day, n = 9, day 11 post infection) was 88.89% and the Survival rate ([7]; 150 mg/kg oral twice per day, n = 9, day 12 post infection) was 88.89%. The Survival rate ([7]; 150 mg/kg oral twice per day, n = 9, day 13 post infection) was 66.67%, the Survival rate ([7]; 150 mg/kg oral twice per day, n = 9, day 14 post infection) was 66.67% and the Survival rate ([7]; 150 mg/kg oral twice per day, n = 9, day 15 post infection) was 66.67%. The Survival rate ([7]; 150 mg/kg oral twice per day, n = 9, day 16 post infection) was 66.67%, the “day post virus infection until which all of the mice survived” value ([7]; 150 mg/kg orally twice per day for 5 days, n=4) was 15 days and the pEC50 (WNV) was 5.28.

For “2′,3′-O-isopropylidene-5′-O-isobutyryl-2-thiouridine [Compound A6]”, the pEC50 (SARS-CoV-2 Wuhan strain) was 5.41, the SI (SARS-CoV-2 Wuhan strain) was 4.9 and the CC50 [1] was 19.4 µM.
